# Experimental data taken from the supplement of paper PMC10307832.
# Assays:
# Test in all cases: relative viability (nuclei count vs DMSO), 5 days (fraction); higher = more cells survive
# Bexarotene + Olaparib = compound: C=C(c1ccc(C(=O)O)cc1)c1cc2c(cc1C)C(C)(C)CCC2(C)C [Bexarotene] + O=C(c1cc(Cc2n[nH]c(=O)c3ccccc23)ccc1F)N1CCN(C(=O)C2CC2)CC1 [Olaparib] (partner 8 µM)
# Procedure, shortened: (§1)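 Lung cancer cell lines in 1536-well plates got either a single drug or a fixed anchor-drug dose together with five library-drug doses (not always all listed) in √10 steps, by pin tool, on the day after seeding. Nuclei were counted after 5 days, and relative viability is the treated-to-vehicle ratio of nuclei counts. Values are medians of duplicate plates.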
# Bexarotene + Bortezomib = compound: C=C(c1ccc(C(=O)O)cc1)c1cc2c(cc1C)C(C)(C)CCC2(C)C [Bexarotene] + CC(C)C[C@H](NC(=O)[C@H](Cc1ccccc1)NC(=O)c1cnccn1)B(O)O [Bortezomib] (partner 0.002 µM)
# Procedure, shortened: as §1
# Bexarotene + Trametinib = compound: C=C(c1ccc(C(=O)O)cc1)c1cc2c(cc1C)C(C)(C)CCC2(C)C [Bexarotene] + CC(=O)Nc1cccc(-n2c(=O)n(C3CC3)c(=O)c3c(Nc4ccc(I)cc4F)n(C)c(=O)c(C)c32)c1 [Trametinib] (partner 0.02 µM)
# Procedure, shortened: as §1
# Bexarotene + Pictilisib = compound: C=C(c1ccc(C(=O)O)cc1)c1cc2c(cc1C)C(C)(C)CCC2(C)C [Bexarotene] + CS(=O)(=O)N1CCN(Cc2cc3nc(-c4cccc5[nH]ncc45)nc(N4CCOCC4)c3s2)CC1 [Pictilisib] (partner 1 µM)
# Procedure, shortened: as §1
cell line,measurement,setting,value
NCI-H1437,relative viability,Bexarotene + Olaparib; first compound 0.08 µM,0.613
same,relative viability,Bexarotene + Olaparib; first compound 0.253 µM,0.638
same,relative viability,Bexarotene + Olaparib; first compound 0.8 µM,0.599
same,relative viability,Bexarotene + Olaparib; first compound 2.53 µM,0.623
same,relative viability,Bexarotene + Olaparib; first compound 8 µM,0.597
same,relative viability,Bexarotene + Bortezomib; first compound 0.08 µM,0.528
same,relative viability,Bexarotene + Bortezomib; first compound 0.253 µM,0.621
same,relative viability,Bexarotene + Bortezomib; first compound 0.8 µM,0.611
same,relative viability,Bexarotene + Bortezomib; first compound 2.53 µM,0.546
same,relative viability,Bexarotene + Bortezomib; first compound 8 µM,0.49
same,relative viability,Bexarotene + Trametinib; first compound 0.08 µM,0.552
same,relative viability,Bexarotene + Trametinib; first compound 0.253 µM,0.508
same,relative viability,Bexarotene + Trametinib; first compound 0.8 µM,0.488
same,relative viability,Bexarotene + Trametinib; first compound 2.53 µM,0.482
same,relative viability,Bexarotene + Trametinib; first compound 8 µM,0.459
same,relative viability,Bexarotene + Pictilisib; first compound 0.08 µM,0.572
same,relative viability,Bexarotene + Pictilisib; first compound 0.253 µM,0.447
same,relative viability,Bexarotene + Pictilisib; first compound 0.8 µM,0.56
same,relative viability,Bexarotene + Pictilisib; first compound 2.53 µM,0.601
same,relative viability,Bexarotene + Pictilisib; first compound 8 µM,0.542
NCI-H1650,relative viability,Bexarotene + Olaparib; first compound 0.08 µM,0.769
same,relative viability,Bexarotene + Olaparib; first compound 0.253 µM,0.674
same,relative viability,Bexarotene + Olaparib; first compound 0.8 µM,0.797
same,relative viability,Bexarotene + Olaparib; first compound 2.53 µM,0.697
same,relative viability,Bexarotene + Olaparib; first compound 8 µM,0.7
same,relative viability,Bexarotene + Bortezomib; first compound 0.08 µM,0.218
same,relative viability,Bexarotene + Bortezomib; first compound 0.253 µM,0.21
same,relative viability,Bexarotene + Bortezomib; first compound 0.8 µM,0.178
same,relative viability,Bexarotene + Bortezomib; first compound 2.53 µM,0.204
same,relative viability,Bexarotene + Bortezomib; first compound 8 µM,0.227
same,relative viability,Bexarotene + Trametinib; first compound 0.08 µM,0.56
same,relative viability,Bexarotene + Trametinib; first compound 0.253 µM,0.474
same,relative viability,Bexarotene + Trametinib; first compound 0.8 µM,0.614
same,relative viability,Bexarotene + Trametinib; first compound 2.53 µM,0.466
same,relative viability,Bexarotene + Trametinib; first compound 8 µM,0.477
same,relative viability,Bexarotene + Pictilisib; first compound 0.08 µM,0.669
same,relative viability,Bexarotene + Pictilisib; first compound 0.253 µM,0.544
same,relative viability,Bexarotene + Pictilisib; first compound 0.8 µM,0.527
same,relative viability,Bexarotene + Pictilisib; first compound 2.53 µM,0.537
same,relative viability,Bexarotene + Pictilisib; first compound 8 µM,0.527
NCI-H1651,relative viability,Bexarotene + Olaparib; first compound 0.08 µM,0.201
same,relative viability,Bexarotene + Olaparib; first compound 0.253 µM,0.226
same,relative viability,Bexarotene + Olaparib; first compound 0.8 µM,0.208
same,relative viability,Bexarotene + Olaparib; first compound 2.53 µM,0.206
same,relative viability,Bexarotene + Olaparib; first compound 8 µM,0.197
same,relative viability,Bexarotene + Bortezomib; first compound 0.08 µM,1.14
same,relative viability,Bexarotene + Bortezomib; first compound 0.253 µM,0.843
same,relative viability,Bexarotene + Bortezomib; first compound 0.8 µM,0.965
same,relative viability,Bexarotene + Bortezomib; first compound 2.53 µM,0.944
same,relative viability,Bexarotene + Bortezomib; first compound 8 µM,1.04
same,relative viability,Bexarotene + Trametinib; first compound 0.08 µM,0.861
same,relative viability,Bexarotene + Trametinib; first compound 0.253 µM,0.867
same,relative viability,Bexarotene + Trametinib; first compound 0.8 µM,0.884
same,relative viability,Bexarotene + Trametinib; first compound 2.53 µM,0.875
same,relative viability,Bexarotene + Trametinib; first compound 8 µM,0.827
same,relative viability,Bexarotene + Pictilisib; first compound 0.08 µM,0.837
same,relative viability,Bexarotene + Pictilisib; first compound 0.253 µM,0.52
same,relative viability,Bexarotene + Pictilisib; first compound 0.8 µM,0.723
same,relative viability,Bexarotene + Pictilisib; first compound 2.53 µM,0.674
same,relative viability,Bexarotene + Pictilisib; first compound 8 µM,0.593
NCI-H1666,relative viability,Bexarotene + Olaparib; first compound 0.08 µM,0.714
same,relative viability,Bexarotene + Olaparib; first compound 0.253 µM,0.754
same,relative viability,Bexarotene + Olaparib; first compound 0.8 µM,0.694
same,relative viability,Bexarotene + Olaparib; first compound 2.53 µM,0.691
same,relative viability,Bexarotene + Olaparib; first compound 8 µM,0.63
same,relative viability,Bexarotene + Bortezomib; first compound 0.08 µM,0.742
same,relative viability,Bexarotene + Bortezomib; first compound 0.253 µM,0.701
same,relative viability,Bexarotene + Bortezomib; first compound 0.8 µM,0.727
same,relative viability,Bexarotene + Bortezomib; first compound 2.53 µM,0.719
same,relative viability,Bexarotene + Bortezomib; first compound 8 µM,0.75
same,relative viability,Bexarotene + Trametinib; first compound 0.08 µM,0.912
same,relative viability,Bexarotene + Trametinib; first compound 0.253 µM,0.788
same,relative viability,Bexarotene + Trametinib; first compound 0.8 µM,0.839
same,relative viability,Bexarotene + Trametinib; first compound 2.53 µM,0.809
same,relative viability,Bexarotene + Trametinib; first compound 8 µM,0.743
same,relative viability,Bexarotene + Pictilisib; first compound 0.08 µM,0.256
same,relative viability,Bexarotene + Pictilisib; first compound 0.253 µM,0.337
same,relative viability,Bexarotene + Pictilisib; first compound 0.8 µM,0.359
same,relative viability,Bexarotene + Pictilisib; first compound 2.53 µM,0.58
same,relative viability,Bexarotene + Pictilisib; first compound 8 µM,0.459
NCI-H1734,relative viability,Bexarotene + Olaparib; first compound 0.08 µM,0.669
same,relative viability,Bexarotene + Olaparib; first compound 0.253 µM,0.648
same,relative viability,Bexarotene + Olaparib; first compound 0.8 µM,0.573
same,relative viability,Bexarotene + Olaparib; first compound 2.53 µM,0.709
same,relative viability,Bexarotene + Olaparib; first compound 8 µM,0.633
same,relative viability,Bexarotene + Bortezomib; first compound 0.08 µM,0.896
same,relative viability,Bexarotene + Bortezomib; first compound 0.253 µM,0.98
same,relative viability,Bexarotene + Bortezomib; first compound 0.8 µM,0.936
same,relative viability,Bexarotene + Bortezomib; first compound 2.53 µM,0.87
same,relative viability,Bexarotene + Bortezomib; first compound 8 µM,0.818
same,relative viability,Bexarotene + Trametinib; first compound 0.08 µM,0.69
same,relative viability,Bexarotene + Trametinib; first compound 0.253 µM,0.732
same,relative viability,Bexarotene + Trametinib; first compound 0.8 µM,0.642
same,relative viability,Bexarotene + Trametinib; first compound 2.53 µM,0.589
same,relative viability,Bexarotene + Trametinib; first compound 8 µM,0.57
same,relative viability,Bexarotene + Pictilisib; first compound 0.08 µM,0.559
same,relative viability,Bexarotene + Pictilisib; first compound 0.253 µM,0.462
same,relative viability,Bexarotene + Pictilisib; first compound 0.8 µM,0.4
same,relative viability,Bexarotene + Pictilisib; first compound 2.53 µM,0.442
same,relative viability,Bexarotene + Pictilisib; first compound 8 µM,0.43
NCI-H1755,relative viability,Bexarotene + Olaparib; first compound 0.08 µM,0.982
same,relative viability,Bexarotene + Olaparib; first compound 0.253 µM,0.957
same,relative viability,Bexarotene + Olaparib; first compound 0.8 µM,1.03
same,relative viability,Bexarotene + Olaparib; first compound 2.53 µM,0.951
same,relative viability,Bexarotene + Olaparib; first compound 8 µM,0.887
same,relative viability,Bexarotene + Bortezomib; first compound 0.08 µM,1.02
same,relative viability,Bexarotene + Bortezomib; first compound 0.253 µM,1.03
same,relative viability,Bexarotene + Bortezomib; first compound 0.8 µM,1.02
same,relative viability,Bexarotene + Bortezomib; first compound 2.53 µM,1
same,relative viability,Bexarotene + Bortezomib; first compound 8 µM,0.957
same,relative viability,Bexarotene + Trametinib; first compound 0.08 µM,0.849
same,relative viability,Bexarotene + Trametinib; first compound 0.253 µM,0.864
same,relative viability,Bexarotene + Trametinib; first compound 0.8 µM,0.834
same,relative viability,Bexarotene + Trametinib; first compound 2.53 µM,0.773
same,relative viability,Bexarotene + Trametinib; first compound 8 µM,0.718
same,relative viability,Bexarotene + Pictilisib; first compound 0.08 µM,0.457
same,relative viability,Bexarotene + Pictilisib; first compound 0.253 µM,0.454
same,relative viability,Bexarotene + Pictilisib; first compound 0.8 µM,0.356
same,relative viability,Bexarotene + Pictilisib; first compound 2.53 µM,0.37
same,relative viability,Bexarotene + Pictilisib; first compound 8 µM,0.337
NCI-H1792,relative viability,Bexarotene + Olaparib; first compound 0.08 µM,0.229
same,relative viability,Bexarotene + Olaparib; first compound 0.253 µM,0.435
same,relative viability,Bexarotene + Olaparib; first compound 0.8 µM,0.393
same,relative viability,Bexarotene + Olaparib; first compound 2.53 µM,0.337
same,relative viability,Bexarotene + Olaparib; first compound 8 µM,0.32
same,relative viability,Bexarotene + Bortezomib; first compound 0.08 µM,0.871
same,relative viability,Bexarotene + Bortezomib; first compound 0.253 µM,0.981
same,relative viability,Bexarotene + Bortezomib; first compound 0.8 µM,0.809
same,relative viability,Bexarotene + Bortezomib; first compound 2.53 µM,0.761
same,relative viability,Bexarotene + Bortezomib; first compound 8 µM,0.681
same,relative viability,Bexarotene + Trametinib; first compound 0.08 µM,0.677
same,relative viability,Bexarotene + Trametinib; first compound 0.253 µM,0.46
same,relative viability,Bexarotene + Trametinib; first compound 0.8 µM,0.442
same,relative viability,Bexarotene + Trametinib; first compound 2.53 µM,0.493
same,relative viability,Bexarotene + Trametinib; first compound 8 µM,0.345
same,relative viability,Bexarotene + Pictilisib; first compound 0.08 µM,0.244
same,relative viability,Bexarotene + Pictilisib; first compound 0.253 µM,0.204
same,relative viability,Bexarotene + Pictilisib; first compound 0.8 µM,0.213
same,relative viability,Bexarotene + Pictilisib; first compound 2.53 µM,0.252
same,relative viability,Bexarotene + Pictilisib; first compound 8 µM,0.205
NCI-H1915,relative viability,Bexarotene + Olaparib; first compound 0.08 µM,0.265
same,relative viability,Bexarotene + Olaparib; first compound 0.253 µM,0.262
same,relative viability,Bexarotene + Olaparib; first compound 0.8 µM,0.284
same,relative viability,Bexarotene + Olaparib; first compound 2.53 µM,0.278
same,relative viability,Bexarotene + Olaparib; first compound 8 µM,0.242
same,relative viability,Bexarotene + Bortezomib; first compound 0.08 µM,1
same,relative viability,Bexarotene + Bortezomib; first compound 0.253 µM,0.989
same,relative viability,Bexarotene + Bortezomib; first compound 0.8 µM,0.896
same,relative viability,Bexarotene + Bortezomib; first compound 2.53 µM,0.993
same,relative viability,Bexarotene + Bortezomib; first compound 8 µM,0.911
same,relative viability,Bexarotene + Trametinib; first compound 0.08 µM,0.297
same,relative viability,Bexarotene + Trametinib; first compound 0.253 µM,0.286
same,relative viability,Bexarotene + Trametinib; first compound 0.8 µM,0.266
same,relative viability,Bexarotene + Trametinib; first compound 2.53 µM,0.255
same,relative viability,Bexarotene + Trametinib; first compound 8 µM,0.218
same,relative viability,Bexarotene + Pictilisib; first compound 0.08 µM,1.19
same,relative viability,Bexarotene + Pictilisib; first compound 0.253 µM,0.989
same,relative viability,Bexarotene + Pictilisib; first compound 0.8 µM,0.882
same,relative viability,Bexarotene + Pictilisib; first compound 2.53 µM,0.996
same,relative viability,Bexarotene + Pictilisib; first compound 8 µM,0.917
